The text below walks through data of PubChem BioAssay (NCI).

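Results reflect a 48-hour exposure of cells in 96-well plates to compound at five concentrations. TGI is the concentration that stops growth completely.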

Test systems include ACHN renal; HCT-15 colon; MOLT-4 leukemia; NCI-H226 lung; SN12C renal; SNB-19 CNS; A498 renal; RXF 393 renal; MDA-MB-435.
Test in all cases: NCI anticancer screen, dose series, 48 h

Take `CC(C)OP(=O)(OC(C)C)/C(N)=N/Nc1ccc([N+](=O)[O-])cc1`: the TGI in the assay with ACHN renal, in the assay on HCT-15 colon, with MOLT-4 leukemia, in the assay on NCI-H226 lung, with SN12C renal and in the assay with SNB-19 CNS was above 100 µM each time.
With `C#Cc1c(C)c(/C=C/C(C)=C/C(=O)OC)n(C)c1C`, the TGI in the assay with A498 renal, in the assay on ACHN renal, in the assay with HCT-15 colon, with MOLT-4 leukemia, in the assay on NCI-H226 lung and in the assay with SN12C renal was above 100 µM each time. In the assay with SNB-19 CNS, the TGI was above 100 µM.
On to `Cc1ccc(S(=O)(=O)c2ccccc2[N+](=O)[O-])cc1`, for which the TGI in the assay with A498 renal, in the assay with ACHN renal, in the assay with HCT-15 colon, in the assay on MOLT-4 leukemia, in the assay on NCI-H226 lung and with RXF 393 renal was above 100 µM in each case.
On to `O=C1/C(=C/c2ccccc2)CN(C(=O)CCN2CCCC2)C/C1=C\c1ccccc1`, for which the TGI was determined as 13 µM in the assay on A498 renal; 4.78 µM in the assay with ACHN renal; 3.97 µM in the assay on HCT-15 colon; 3.24 µM in the assay with MDA-MB-435; 1.68 µM in the assay with MOLT-4 leukemia; 13.9 µM in the assay with NCI-H226 lung. For the same compound, the TGI with RXF 393 renal was 5.24 µM; in the assay on SN12C renal it was 3.16 µM; in the assay on SNB-19 CNS it was 6.69 µM.
For `O=C(O)CCNCCCCNCCC(=O)O`, the TGI in the assay on A498 renal, in the assay with ACHN renal, in the assay with HCT-15 colon, in the assay with MOLT-4 leukemia, with NCI-H226 lung and with RXF 393 renal was above 100 µM throughout. Further, the TGI in the assay on SN12C renal and in the assay on SNB-19 CNS was above 100 µM each time.
On to `C=CCO/N=C(\OC(=O)c1ccc([N+](=O)[O-])cc1)c1ccccc1`, for which the TGI in the assay with A498 renal, in the assay on ACHN renal, in the assay with HCT-15 colon, in the assay on NCI-H226 lung, in the assay on SN12C renal and with SNB-19 CNS was above 100 µM throughout.
For the compound `COc1ccc(C(=O)C(CC2C(=O)NC(=O)NC2=O)c2ccc(OC)cc2)cc1` (configuration not stated), the TGI with A498 renal, in the assay with ACHN renal, in the assay on HCT-15 colon, in the assay on MOLT-4 leukemia, with NCI-H226 lung and in the assay on RXF 393 renal was above 100 µM in each case. Besides, the TGI with SN12C renal and with SNB-19 CNS was above 100 µM each time.
For `c1ccc2c(c1)oc1ccc3nsnc3c12`, the TGI in the assay on A498 renal, in the assay on ACHN renal, in the assay with HCT-15 colon, with MOLT-4 leukemia, with NCI-H226 lung and with RXF 393 renal was above 100 µM in each case. In the assay with SNB-19 CNS, the TGI was above 100 µM.
In the case of `C=CCC1=C(C)C[C@@H]2CCC(=O)C=C12`, the TGI in the assay with A498 renal, in the assay with ACHN renal, in the assay with HCT-15 colon, in the assay with MOLT-4 leukemia, in the assay with RXF 393 renal and in the assay on SN12C renal was above 100 µM each time. In the assay with SNB-19 CNS, this compound yielded a TGI above 100 µM.
`COC(=O)c1c2c(cc3c1CC1(Cc4cc5c(c(C(C)=O)c4C1)CCC5)C3)CCC2` (configuration not stated): the TGI in the assay with ACHN renal is above 100 µM; in the assay with MOLT-4 leukemia it was above 100 µM; in the assay on RXF 393 renal, 95.7 µM; with SN12C renal it was above 100 µM; with SNB-19 CNS, above 100 µM.
`Cc1cc(N(CCC#N)CCC#N)ccc1N=Nc1ccc(Br)cc1`: the TGI in the assay on A498 renal was 30 µM; in the assay with ACHN renal, above 42.2 µM; in the assay with HCT-15 colon, above 100 µM; in the assay with MOLT-4 leukemia, above 58.8 µM; in the assay with NCI-H226 lung it was above 46.5 µM; in the assay with RXF 393 renal, 25.8 µM. Further, the TGI with SN12C renal was above 54.8 µM; in the assay with SNB-19 CNS, above 57.6 µM.
As for `Cc1cccc(C)c1NC(=O)CCc1nc(=S)[nH][nH]1`, the TGI with A498 renal, in the assay on ACHN renal, with HCT-15 colon, with MOLT-4 leukemia, with NCI-H226 lung and with RXF 393 renal was above 100 µM in each case. The TGI in the assay with SN12C renal and in the assay on SNB-19 CNS was above 100 µM each time.
On to `CC1=NN(C(=O)c2ccc(Cl)cc2)C(=O)/C1=C/c1ccccc1O`, for which the TGI in the assay with A498 renal, in the assay on ACHN renal, with HCT-15 colon, with MOLT-4 leukemia, in the assay with RXF 393 renal and in the assay on SN12C renal was above 100 µM in each case. The same compound came in with a TGI in the assay on SNB-19 CNS above 100 µM.
For the compound `CCOC(=O)N1CCc2cc(OC)c(OC)cc2/C1=C\c1ccc(OC)c(OC)c1`, the TGI is 68.5 µM in the assay on A498 renal; 94 µM in the assay on ACHN renal; above 100 µM with HCT-15 colon; 91.1 µM in the assay with MOLT-4 leukemia; 61.2 µM in the assay on NCI-H226 lung; 54.2 µM in the assay on RXF 393 renal. Also, the TGI in the assay with SN12C renal and in the assay with SNB-19 CNS was above 100 µM each time.
Take `COC(=O)CC(NC(=O)OCc1ccccc1)C(C(=O)OCc1ccccc1)C(C)(OC)OC` (configuration not stated): the TGI in the assay with A498 renal was above 100 µM; with ACHN renal, above 100 µM; in the assay on HCT-15 colon, above 100 µM; in the assay on MOLT-4 leukemia, 33 µM; in the assay on NCI-H226 lung, 97.5 µM; in the assay with RXF 393 renal, 96.9 µM. The TGI in the assay on SN12C renal and in the assay with SNB-19 CNS was above 100 µM throughout.
`O=C1C=CC(=O)c2c(O)c(NCCOCCO)c(Cl)c(O)c21`: the TGI is 28.7 µM in the assay on ACHN renal; 3.64 µM in the assay with HCT-15 colon; 27.4 µM with MOLT-4 leukemia; 32.4 µM in the assay with NCI-H226 lung; 27.1 µM in the assay on RXF 393 renal; 23 µM in the assay with SN12C renal.
With `CC1CCSC(N(C(=O)N(C)c2ccccc2)c2ccccc2)=N1` (configuration not stated), the TGI in the assay on A498 renal, in the assay on ACHN renal, in the assay on HCT-15 colon, in the assay with MOLT-4 leukemia, in the assay on NCI-H226 lung and with RXF 393 renal was above 100 µM in each case. Also, the TGI in the assay with SN12C renal and with SNB-19 CNS was above 100 µM throughout.
